Assay results from paper PMC6876276 (Cell Chemical Biology, 2019).

Target: T1, SHMT1 (Homo sapiens, UniProt P34896)
T1 sequence (P34896 2-483): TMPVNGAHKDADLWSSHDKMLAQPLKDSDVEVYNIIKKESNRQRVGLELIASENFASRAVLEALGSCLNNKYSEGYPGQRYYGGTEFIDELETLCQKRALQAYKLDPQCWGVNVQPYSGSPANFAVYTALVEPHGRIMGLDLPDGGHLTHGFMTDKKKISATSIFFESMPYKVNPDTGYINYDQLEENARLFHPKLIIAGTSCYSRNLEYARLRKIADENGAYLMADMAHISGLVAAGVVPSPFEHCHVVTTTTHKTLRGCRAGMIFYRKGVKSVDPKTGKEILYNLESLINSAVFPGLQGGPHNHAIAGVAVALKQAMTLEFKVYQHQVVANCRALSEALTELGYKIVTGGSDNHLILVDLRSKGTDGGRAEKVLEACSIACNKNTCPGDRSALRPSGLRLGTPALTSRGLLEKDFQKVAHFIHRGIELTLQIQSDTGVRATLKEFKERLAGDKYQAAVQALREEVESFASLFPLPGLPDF
Assay: thermal shift assay, SYPRO orange
Format: binding
Conditions: 2 μM apo-SHMT1, SEC buffer; covalent internal aldimine (reversible)

In the case of Cc1ncc(COP(=O)(O)O)c(C=O)c1O [PLP, pyridoxal 5′-phosphate], the melting temperature is reported as “selective increase in melting temperature of apo-SHMT1 upon incubation with increasing PLP amounts”.
